Assays:
activated N1-IC protein = assay: Western blot of activated N1-IC protein in CEM cells after γ-secretase inhibitor treatment; assay type: cell-based, human; conditions: CEM cells (T-ALL cell line), 1 nM, three days
Method: (§1) FIGS. 9A-9D show γ-secretase-inhibitor mediated suppression of CCR7 expression. CEM cells (T-ALL cell line) were treated with either Compound E (Comp E) (1 nM) or DBZ (1 nM) for three days. FIG. 9A is a panel of western blots showing the disappearance of the activated N1-IC protein in CEM cells following γ-secretase inhibitor (GSI) treatment. β-actin immunoreactivity is shown as a loading control. […] Error bars define standard deviation from mean.

Dtx1 = assay: Transcription of Notch target gene Dtx1 in CEM cells after GSI treatment; assay type: cell-based, human; conditions: CEM cells (T-ALL cell line), 1 nM, three days
Method: as §1
(§2) RNA was isolated using RNeasy Plus Mini Kit (Qiagen, Valencia, Calif.) columns and used to synthesize cDNA with the SuperScript First-Strand Kit (Invitrogen, Carlsbad, Calif.). Real time PCR was performed using iQ SYBR Green Supermix and an iCycler (Bio-Rad, Hercules, Calif.). Relative expression was determined from cycle threshold (CT) values and was normalized using β-actin as an internal control.

Hes1 = assay: Transcription of Notch target gene Hes1 in CEM cells after GSI treatment; assay type: cell-based, human; conditions: CEM cells (T-ALL cell line), 1 nM, three days
Method: as §1, §2

human CCR7 = assay: CCR7 expression in T-ALL cell lines after GSI treatment; assay type: cell-based; conditions: for transcription of human CCR7: CEM cells (T-ALL cell line), 1 nM, three days; for CCR7 mRNA and protein expression: T-ALL cell lines, addition of γ-secretase inhibitors
Method: as §1, §2
To further correlate Notch 1 activation and CCR7 expression, T-ALL cell lines harboring Notch 1 activating mutations and primary T-ALL samples were analyzed. Strikingly, surface CCR7 was expressed in 80% (4/5) of T-ALL lines (FIG. 8A) and in 73% (8/11) of peripheral blood from primary T-ALL samples (FIG. 8B; #114, #358, and #479). […] To obtain a preliminary estimate of the importance of CCR7 expression in CNS infiltration, two human T-ALL lines were selected (FIG. 8A), one expressing CCR7 (CEM/CCR7^pos) and one deficient in CCR7 expression (DND41/CCR7^neg). Both cell lines were infected using a luciferase-expressing lentivirus. To study disease induction and progression, the cells were transplanted into lymphoid Rag2−/− γc−/− host animals. Transplantation of an identical number of leukemia cells led to distinct survival patterns as host animals which received CEM/CCR7^pos cells succumbed to the leukemic disease earlier that the ones receiving the DND41/CCR7^neg cells (FIG. 3A). Using live animal bioluminescent imaging, a higher tumor load in mice that received the […] cell line was observed (FIG. 3B). Most importantly, the brain and spinal cord of CEM/CCR7^pos-transplanted hosts (but not the DND41/CCR7^neg) were infiltrated by T-ALL cells (FIG. 3C). Further histopathological analysis confirmed the localization of the infiltrating cells in leptomeningeal spaces (FIG. 3D).

SMILES | activated N1-IC protein (western blot) (activated N1-IC protein) | transcription of Dtx1 (Dtx1) | transcription of Hes1 (Hes1) | transcription of human CCR7 (human CCR7) | CCR7 mRNA and protein expression (human CCR7)
C[C@H](NC(=O)Cc1cc(F)cc(F)c1)C(=O)N[C@H]1N=C(c2ccccc2)c2ccccc2N(C)C1=O [Compound E] | disappearance | efficiently suppressed | efficiently suppressed | suppressed | significant down-regulation
C[C@H](NC(=O)Cc1cc(F)cc(F)c1)C(=O)N[C@@H]1C(=O)N(C)c2ccccc2-c2ccccc21 [DBZ] | disappearance | efficiently suppressed | efficiently suppressed | suppressed | significant down-regulation

— patent US9101559B2, “Leukemic cell CNS infiltration controlled by notch-induced chemotaxis” (New York University, priority 2009, dated 2015)
